# Experimental data from ChEMBL document CHEMBL4823295, “Design, synthesis and preliminary bioactivity evaluation of bitopic benzopyranomorpholine analogues as selective dopamine D3 receptor ligands as anti-drug addiction therapeutic agents” (Bioorg Med Chem Lett, 2021).
# pKi: −log10 of the molar value. The source made the active and inactive calls. No cut-off for these calls is given here.
# Target: D(3) dopamine receptor (Homo sapiens, UniProt P35462)
# Assay: Displacement of [3H]spiperone from human D3 receptor transfected in HEK293 cell membrane measured after 50 mins by competitive radioligand binding analysis
# Assay type: cell membranes
# Conditions: not given
# Chain of D(3) dopamine receptor (P35462 whole entry): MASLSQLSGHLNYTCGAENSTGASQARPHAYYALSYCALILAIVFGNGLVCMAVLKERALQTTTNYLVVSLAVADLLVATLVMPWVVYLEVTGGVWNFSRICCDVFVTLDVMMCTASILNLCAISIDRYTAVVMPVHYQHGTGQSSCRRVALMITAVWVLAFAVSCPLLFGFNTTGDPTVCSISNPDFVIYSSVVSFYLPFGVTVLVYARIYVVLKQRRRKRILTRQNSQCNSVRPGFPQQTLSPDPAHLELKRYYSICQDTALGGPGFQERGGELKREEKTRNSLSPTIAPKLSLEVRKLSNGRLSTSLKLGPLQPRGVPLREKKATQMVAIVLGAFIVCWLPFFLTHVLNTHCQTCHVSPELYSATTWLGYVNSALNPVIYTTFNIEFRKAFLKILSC
row,pKi,Compound
1,8.91,COc1ccc2c(c1)[C@H]1OCCN(CCCCNC(=O)c3cc(OC)c(OC)c(OC)c3)[C@@H]1CO2 (racemic)
2,7.36,O=C(NCCCCN1CCO[C@@H]2c3ccccc3OC[C@H]21)c1ccc(-c2ccccc2)cc1 (racemic)
3,7.86,COc1ccc2c(c1)[C@H]1OCCN(CCCCNC(=O)c3ccccc3)[C@@H]1CO2 (racemic)
4,7.75,O=C(NCCCCN1CCO[C@@H]2c3ccccc3OC[C@H]21)c1ccc(Cl)cc1 (racemic)
5,8.12,COc1ccc(C(=O)NCCCCN2CCO[C@@H]3c4ccccc4OC[C@H]32)cc1 (racemic)
6,7.73,O=C(NCCCCN1CCO[C@@H]2c3ccccc3OC[C@H]21)c1cccs1 (racemic)
7,7.89,COc1ccccc1C(=O)NCCCCN1CCO[C@@H]2c3ccccc3OC[C@H]21 (racemic)
8,7.14,O=C(NCCCCN1CCO[C@@H]2c3ccccc3OC[C@H]21)c1ccccc1 (racemic)
9,7.47,O=C(NCCCCN1CCO[C@@H]2c3ccccc3OC[C@H]21)c1ccc([N+](=O)[O-])cc1 (racemic)
10,< 6.00,O=C(NCCCCN1CCO[C@@H]2c3ccccc3OC[C@@H]21)c1cccs1 (racemic)
11,8.28,COc1ccc2c(c1)[C@H]1OCCN(CCCCNC(=O)c3ccco3)[C@@H]1CO2 (racemic)
12,8.07,COc1ccc2c(c1)[C@H]1OCCN(CCCCNC(=O)c3ccc(Br)cc3)[C@@H]1CO2 (racemic)
13,7.86,O=C(NCCCCN1CCO[C@@H]2c3ccccc3OC[C@H]21)c1ccc2ccccc2c1 (racemic)
14,7.74,COc1ccc2c(c1)[C@H]1OCCN(CCCCNC(=O)c3ccc(-c4ccccc4)cc3)[C@@H]1CO2 (racemic)
15,7.47,COc1ccc2c(c1)[C@H]1OCCN(CCCCNC(=O)C3CCCCC3)[C@@H]1CO2 (racemic)

row,Compound,pKi
1,COc1ccc2c(c1)[C@H]1OCCN(CCCCNC(=O)c3ccc(Cl)cc3)[C@@H]1CO2 (racemic),7.89
2,O=C(NCCCCN1CCO[C@@H]2c3ccccc3OC[C@H]21)c1ccco1 (racemic),7.93

# Test system: Mus musculus
# Assay: Anti-addiction activity in naloxone-induced withdrawal symptoms in morphine-dependent mouse model assessed as reduction in diarrhea frequency at 50 mg/kg, ip administered 60 mins prior to naloxone injection and measured for 30 mins after naloxone injection
# Assay type: functional, organism-based
# Conditions: time 90.0 min
row,Compound,Activity
1,COc1ccc2c(c1)[C@H]1OCCN(CCCCNC(=O)c3ccccc3)[C@@H]1CO2 (racemic),Active
2,COc1ccc(C(=O)NCCCCN2CCO[C@@H]3c4ccccc4OC[C@H]32)cc1 (racemic),Active
3,O=C(NCCCCN1CCO[C@@H]2c3ccccc3OC[C@H]21)c1cccs1 (racemic),Active
4,O=C(NCCCCN1CCO[C@@H]2c3ccccc3OC[C@H]21)c1ccc([N+](=O)[O-])cc1 (racemic),Active

# Species: Homo sapiens
# Assay: Selectivity ratio of Ki for human D2 receptor transfected in HEK293 cell membrane to Ki for human D3 receptor transfected in HEK293 cell membrane
# Assay type: cell-based
# Conditions: not given
row,Compound,Ratio Ki
1,COc1ccc2c(c1)[C@H]1OCCN(CCCCNC(=O)c3cc(OC)c(OC)c(OC)c3)[C@@H]1CO2 (racemic),782
2,O=C(NCCCCN1CCO[C@@H]2c3ccccc3OC[C@H]21)c1ccc(-c2ccccc2)cc1 (racemic),23
3,COc1ccc2c(c1)[C@H]1OCCN(CCCCNC(=O)c3ccccc3)[C@@H]1CO2 (racemic),41
4,O=C(NCCCCN1CCO[C@@H]2c3ccccc3OC[C@H]21)c1ccc(Cl)cc1 (racemic),27
5,COc1ccc2c(c1)[C@H]1OCCN(CCCCNC(=O)c3ccc(Cl)cc3)[C@@H]1CO2 (racemic),75
6,COc1ccc(C(=O)NCCCCN2CCO[C@@H]3c4ccccc4OC[C@H]32)cc1 (racemic),76
7,O=C(NCCCCN1CCO[C@@H]2c3ccccc3OC[C@H]21)c1cccs1 (racemic),23
8,O=C(NCCCCN1CCO[C@@H]2c3ccccc3OC[C@H]21)c1ccco1 (racemic),73
9,COc1ccccc1C(=O)NCCCCN1CCO[C@@H]2c3ccccc3OC[C@H]21 (racemic),67
10,O=C(NCCCCN1CCO[C@@H]2c3ccccc3OC[C@H]21)c1ccccc1 (racemic),11
11,O=C(NCCCCN1CCO[C@@H]2c3ccccc3OC[C@H]21)c1ccc([N+](=O)[O-])cc1 (racemic),28
12,COc1ccc2c(c1)[C@H]1OCCN(CCCCNC(=O)c3ccco3)[C@@H]1CO2 (racemic),177
13,COc1ccc2c(c1)[C@H]1OCCN(CCCCNC(=O)c3ccc(Br)cc3)[C@@H]1CO2 (racemic),111
14,O=C(NCCCCN1CCO[C@@H]2c3ccccc3OC[C@H]21)c1ccc2ccccc2c1 (racemic),53
15,COc1ccc2c(c1)[C@H]1OCCN(CCCCNC(=O)c3ccc(-c4ccccc4)cc3)[C@@H]1CO2 (racemic),58
16,COc1ccc2c(c1)[C@H]1OCCN(CCCCNC(=O)C3CCCCC3)[C@@H]1CO2 (racemic),21

# Target: D(2) dopamine receptor (Homo sapiens, UniProt P14416)
# Sequence (P14416 whole entry): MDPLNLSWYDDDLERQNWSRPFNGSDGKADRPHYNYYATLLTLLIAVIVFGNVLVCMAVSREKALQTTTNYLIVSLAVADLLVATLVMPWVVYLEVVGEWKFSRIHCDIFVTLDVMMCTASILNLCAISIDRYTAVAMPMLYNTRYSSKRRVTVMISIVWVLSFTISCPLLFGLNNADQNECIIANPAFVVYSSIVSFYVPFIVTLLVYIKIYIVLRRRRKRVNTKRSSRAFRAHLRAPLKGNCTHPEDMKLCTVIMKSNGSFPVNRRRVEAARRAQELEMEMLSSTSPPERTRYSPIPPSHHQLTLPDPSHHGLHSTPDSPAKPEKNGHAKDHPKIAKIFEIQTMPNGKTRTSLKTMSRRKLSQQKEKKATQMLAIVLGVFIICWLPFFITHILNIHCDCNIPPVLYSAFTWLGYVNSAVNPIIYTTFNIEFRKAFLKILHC
# Assay: Displacement of [3H]spiperone from human D2 receptor transfected in HEK293 cell membrane measured after 50 mins by competitive radioligand binding analysis
# Assay type: cell membranes
# Conditions: not given
row,pKi,Compound
1,6.02,COc1ccc2c(c1)[C@H]1OCCN(CCCCNC(=O)c3cc(OC)c(OC)c(OC)c3)[C@@H]1CO2 (racemic)
2,5.99,O=C(NCCCCN1CCO[C@@H]2c3ccccc3OC[C@H]21)c1ccc(-c2ccccc2)cc1 (racemic)
3,6.25,COc1ccc2c(c1)[C@H]1OCCN(CCCCNC(=O)c3ccccc3)[C@@H]1CO2 (racemic)
4,6.33,O=C(NCCCCN1CCO[C@@H]2c3ccccc3OC[C@H]21)c1ccc(Cl)cc1 (racemic)
5,6.25,COc1ccc(C(=O)NCCCCN2CCO[C@@H]3c4ccccc4OC[C@H]32)cc1 (racemic)
6,6.38,O=C(NCCCCN1CCO[C@@H]2c3ccccc3OC[C@H]21)c1cccs1 (racemic)
7,6.06,COc1ccccc1C(=O)NCCCCN1CCO[C@@H]2c3ccccc3OC[C@H]21 (racemic)
8,6.11,O=C(NCCCCN1CCO[C@@H]2c3ccccc3OC[C@H]21)c1ccccc1 (racemic)
9,6.02,O=C(NCCCCN1CCO[C@@H]2c3ccccc3OC[C@H]21)c1ccc([N+](=O)[O-])cc1 (racemic)
10,6.03,COc1ccc2c(c1)[C@H]1OCCN(CCCCNC(=O)c3ccco3)[C@@H]1CO2 (racemic)
11,6.02,COc1ccc2c(c1)[C@H]1OCCN(CCCCNC(=O)c3ccc(Br)cc3)[C@@H]1CO2 (racemic)
12,6.14,O=C(NCCCCN1CCO[C@@H]2c3ccccc3OC[C@H]21)c1ccc2ccccc2c1 (racemic)
13,5.97,COc1ccc2c(c1)[C@H]1OCCN(CCCCNC(=O)c3ccc(-c4ccccc4)cc3)[C@@H]1CO2 (racemic)
14,6.16,COc1ccc2c(c1)[C@H]1OCCN(CCCCNC(=O)C3CCCCC3)[C@@H]1CO2 (racemic)

row,Compound,pKi
1,COc1ccc2c(c1)[C@H]1OCCN(CCCCNC(=O)c3ccc(Cl)cc3)[C@@H]1CO2 (racemic),6.01
2,O=C(NCCCCN1CCO[C@@H]2c3ccccc3OC[C@H]21)c1ccco1 (racemic),6.07

# Test system: Mus musculus
# Assay: Anti-addiction activity in naloxone-induced withdrawal symptoms in morphine-dependent mouse model assessed as inhibition of naloxone-induced body weight loss at 50 mg/kg, ip administered 60 mins prior to naloxone injection and measured after 2 hrs of naloxone injection
# Assay type: functional, organism-based
# Conditions: time 3.0 hrs
row,Compound,Activity
1,O=C(NCCCCN1CCO[C@@H]2c3ccccc3OC[C@H]21)c1ccc(-c2ccccc2)cc1 (racemic),Active
2,COc1ccc2c(c1)[C@H]1OCCN(CCCCNC(=O)c3ccccc3)[C@@H]1CO2 (racemic),Active
3,O=C(NCCCCN1CCO[C@@H]2c3ccccc3OC[C@H]21)c1ccc(Cl)cc1 (racemic),Active
4,COc1ccc(C(=O)NCCCCN2CCO[C@@H]3c4ccccc4OC[C@H]32)cc1 (racemic),Active
5,O=C(NCCCCN1CCO[C@@H]2c3ccccc3OC[C@H]21)c1cccs1 (racemic),Active
6,O=C(NCCCCN1CCO[C@@H]2c3ccccc3OC[C@H]21)c1ccco1 (racemic),Active
7,O=C(NCCCCN1CCO[C@@H]2c3ccccc3OC[C@H]21)c1ccccc1 (racemic),Active
8,O=C(NCCCCN1CCO[C@@H]2c3ccccc3OC[C@H]21)c1ccc([N+](=O)[O-])cc1 (racemic),Active
9,O=C(NCCCCN1CCO[C@@H]2c3ccccc3OC[C@@H]21)c1cccs1 (racemic),inactive
10,COc1ccc2c(c1)[C@H]1OCCN(CCCCNC(=O)c3ccco3)[C@@H]1CO2 (racemic),inactive
11,COc1ccc2c(c1)[C@H]1OCCN(CCCCNC(=O)c3ccc(Br)cc3)[C@@H]1CO2 (racemic),Active
12,O=C(NCCCCN1CCO[C@@H]2c3ccccc3OC[C@H]21)c1ccc2ccccc2c1 (racemic),Active
13,COc1ccc2c(c1)[C@H]1OCCN(CCCCNC(=O)c3ccc(-c4ccccc4)cc3)[C@@H]1CO2 (racemic),Active
14,COc1ccc2c(c1)[C@H]1OCCN(CCCCNC(=O)C3CCCCC3)[C@@H]1CO2 (racemic),Active

# Test system: Mus musculus
# Assay: Anti-addiction activity in naloxone-induced withdrawal symptoms in morphine-dependent mouse model assessed as reduction in amount of diarrhea at 50 mg/kg, ip administered 60 mins prior to naloxone injection and measured for 30 mins after naloxone injection
# Assay type: functional, organism-based
# Conditions: time 90.0 min
row,Compound,Activity
1,O=C(NCCCCN1CCO[C@@H]2c3ccccc3OC[C@H]21)c1ccc(Cl)cc1 (racemic),Active
2,O=C(NCCCCN1CCO[C@@H]2c3ccccc3OC[C@H]21)c1ccc2ccccc2c1 (racemic),Active
3,COc1ccc2c(c1)[C@H]1OCCN(CCCCNC(=O)C3CCCCC3)[C@@H]1CO2 (racemic),Active

# Test system: not listed separately
# Assay: Toxicity in naloxone-induced withdrawal symptoms in morphine-dependent mouse model assessed as mortality at 50 mg/kg, ip administered 60 mins prior to naloxone injection
# Assay type: organism-based
# Conditions: in vivo, 1 h
row,Compound,Activity
1,COc1ccc2c(c1)[C@H]1OCCN(CCCCNC(=O)c3ccc(Cl)cc3)[C@@H]1CO2 (racemic),Toxic
2,O=C(NCCCCN1CCO[C@@H]2c3ccccc3OC[C@H]21)c1ccco1 (racemic),Toxic

# Test system: not listed separately
# Assay: Toxicity in naloxone-induced withdrawal symptoms in morphine-dependent mouse model assessed as slow crawling at 50 mg/kg, ip administered 60 mins prior to naloxone injection
# Assay type: organism-based
# Conditions: in vivo, 1 h
row,Compound,Activity
1,COc1ccc2c(c1)[C@H]1OCCN(CCCCNC(=O)c3cc(OC)c(OC)c(OC)c3)[C@@H]1CO2 (racemic),Toxic

# Test system: Mus musculus
# Assay: Anti-addiction activity in naloxone-induced withdrawal symptoms in morphine-dependent mouse model assessed as inhibition of naloxone-induced jumping response at 50 mg/kg, ip administered 60 mins prior to naloxone injection and measured for 30 mins after naloxone injection
# Assay type: functional, organism-based
# Conditions: time 90.0 min
row,Compound,Activity
1,O=C(NCCCCN1CCO[C@@H]2c3ccccc3OC[C@H]21)c1ccc(-c2ccccc2)cc1 (racemic),Active
2,COc1ccc(C(=O)NCCCCN2CCO[C@@H]3c4ccccc4OC[C@H]32)cc1 (racemic),Active
3,O=C(NCCCCN1CCO[C@@H]2c3ccccc3OC[C@H]21)c1ccccc1 (racemic),Active
4,O=C(NCCCCN1CCO[C@@H]2c3ccccc3OC[C@H]21)c1ccc([N+](=O)[O-])cc1 (racemic),Active
5,COc1ccc2c(c1)[C@H]1OCCN(CCCCNC(=O)c3ccco3)[C@@H]1CO2 (racemic),Active
6,COc1ccc2c(c1)[C@H]1OCCN(CCCCNC(=O)C3CCCCC3)[C@@H]1CO2 (racemic),Active

# Test system: not listed separately
# Assay: Toxicity in naloxone-induced withdrawal symptoms in morphine-dependent mouse model assessed as convulsions at 50 mg/kg, ip administered 60 mins prior to naloxone injection
# Assay type: organism-based
# Conditions: in vivo, 1 h
row,Compound,Activity
1,COc1ccc2c(c1)[C@H]1OCCN(CCCCNC(=O)c3cc(OC)c(OC)c(OC)c3)[C@@H]1CO2 (racemic),Toxic
2,O=C(NCCCCN1CCO[C@@H]2c3ccccc3OC[C@H]21)c1ccco1 (racemic),Toxic

# Test system: not listed separately
# Assay: Toxicity in naloxone-induced withdrawal symptoms in morphine-dependent mouse model assessed as inability to bounce at 50 mg/kg, ip administered 60 mins prior to naloxone injection
# Assay type: organism-based
# Conditions: in vivo, 1 h
row,Compound,Activity
1,COc1ccc2c(c1)[C@H]1OCCN(CCCCNC(=O)c3cc(OC)c(OC)c(OC)c3)[C@@H]1CO2 (racemic),Toxic
